From PubChem BioAssay AID1966 (Sanford-Burnham Center for Chemical Genomics, 2009)
Activity calls are given as the source filed them. No rule for the calls is given here.

Target: Beta-galactosidase (Escherichia coli) (UniProt Q8VNN2)
Experiment: E. coli beta-galactosidase enzyme inhibition, dose response, counter-screen, biochemical (AID 1966)
Conditions: purified E. coli beta-galactosidase enzyme activity

Sequence of Beta-galactosidase (Escherichia coli) (Q8VNN2 whole entry, looked up): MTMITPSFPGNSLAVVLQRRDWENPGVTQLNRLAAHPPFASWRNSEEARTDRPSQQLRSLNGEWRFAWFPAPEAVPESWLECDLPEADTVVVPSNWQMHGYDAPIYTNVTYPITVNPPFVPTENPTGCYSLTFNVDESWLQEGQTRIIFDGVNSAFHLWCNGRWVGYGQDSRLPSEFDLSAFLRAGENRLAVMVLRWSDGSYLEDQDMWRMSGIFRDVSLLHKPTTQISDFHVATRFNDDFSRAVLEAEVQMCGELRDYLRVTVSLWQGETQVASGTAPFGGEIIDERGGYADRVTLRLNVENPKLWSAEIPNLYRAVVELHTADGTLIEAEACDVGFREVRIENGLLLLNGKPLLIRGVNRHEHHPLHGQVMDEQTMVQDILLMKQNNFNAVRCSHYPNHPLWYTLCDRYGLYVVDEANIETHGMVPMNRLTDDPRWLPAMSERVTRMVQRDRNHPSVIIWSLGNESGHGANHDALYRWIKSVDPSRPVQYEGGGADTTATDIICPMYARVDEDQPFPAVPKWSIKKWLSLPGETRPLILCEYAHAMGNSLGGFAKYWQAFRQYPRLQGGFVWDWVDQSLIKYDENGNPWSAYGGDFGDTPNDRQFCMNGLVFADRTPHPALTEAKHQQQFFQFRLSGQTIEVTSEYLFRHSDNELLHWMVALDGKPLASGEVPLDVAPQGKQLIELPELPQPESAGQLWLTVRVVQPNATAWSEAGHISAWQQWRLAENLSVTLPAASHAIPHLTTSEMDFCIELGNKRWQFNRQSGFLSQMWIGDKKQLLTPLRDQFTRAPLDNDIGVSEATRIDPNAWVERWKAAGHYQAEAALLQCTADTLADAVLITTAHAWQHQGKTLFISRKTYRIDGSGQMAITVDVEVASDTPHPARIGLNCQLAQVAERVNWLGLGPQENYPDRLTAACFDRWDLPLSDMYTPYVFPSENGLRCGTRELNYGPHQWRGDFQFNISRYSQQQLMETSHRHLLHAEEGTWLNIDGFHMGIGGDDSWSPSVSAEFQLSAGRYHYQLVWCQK

CCNC(=O)C1CCCN1C(=O)C(CCCN=C(N)N)NC(=O)C(CC(C)C)NC(=O)C(Cc1cn(Cc2ccccc2)cn1)NC(=O)C(Cc1ccc(O)cc1)NC(=O)C(CO)NC(=O)C(Cc1c[nH]c2ccccc12)NC(=O)C(Cc1cnc[nH]1)NC(=O)C1CCC(=O)N1 (stereo unspecified)
IC50: > 31.5 µM (inactive)
